Assays:
Sirt3 [1] = biological target: T1, Sirt3 (Homo sapiens, UniProt Q9NTG7); assay: Coupled enzymatic deacetylation assay, Sirt3 with ACS2-acK642 peptide; type: biochemical; settings: for Effect on Sirt3 activity (in words): coupled assay, ACS2 peptide, 10 and 100 μM compound
T1 sequence (Q9NTG7 114-380): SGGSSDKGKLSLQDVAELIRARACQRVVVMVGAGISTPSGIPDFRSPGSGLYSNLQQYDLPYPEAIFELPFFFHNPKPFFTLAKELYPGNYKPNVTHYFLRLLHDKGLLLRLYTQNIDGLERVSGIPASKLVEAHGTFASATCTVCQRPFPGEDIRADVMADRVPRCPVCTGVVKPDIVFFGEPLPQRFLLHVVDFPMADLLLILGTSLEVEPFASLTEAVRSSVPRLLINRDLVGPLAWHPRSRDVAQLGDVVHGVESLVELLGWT

Sirt1-3 = settings: FdL substrate; cited from earlier work
MDA-MB-231 cells = assay: Ammonia level assay, MDA-MB-231 cells; type: cell-based, human; settings: 50 μM, 4 and 24 h
glutaminase (GLS) = assay: GLS activity assay in MDA-MB-231 cell lysates; type: cell-based, human; settings: MDA-MB-231 cells, 50 μM, 4 and 24 h
Sirt5 [2] = biological target: T2, Sirt5 (Homo sapiens, UniProt Q9NXA8); settings: cited from earlier work
T2 sequence (Q9NXA8 37-310): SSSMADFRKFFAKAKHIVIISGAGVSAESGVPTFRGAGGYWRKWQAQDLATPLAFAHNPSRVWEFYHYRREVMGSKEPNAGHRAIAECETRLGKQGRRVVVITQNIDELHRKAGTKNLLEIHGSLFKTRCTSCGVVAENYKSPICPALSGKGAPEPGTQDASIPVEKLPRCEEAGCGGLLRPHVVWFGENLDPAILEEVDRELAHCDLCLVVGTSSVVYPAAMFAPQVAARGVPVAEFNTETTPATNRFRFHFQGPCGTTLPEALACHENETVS

GOT1 acetylation = GOT1 acetylation Western blot in pancreatic cancer cell lines; type: cell-based; settings: for GOT1 acetylation: S2–013 and Capan1 cell lines, 20 μM, 24 h; for Effect on GOT1 acetylation: SIRT5 knockout KPC and KPCS cell lines
GDH = GDH activity assay in MDA-MB-231 cell lysates; type: cell-based, human; settings: wild-type MDA-MB-231 cells, 50 μM, 4 or 24 h
Sirt5 [3] = biological target: T3, Sirt5 (Homo sapiens, UniProt Q9NXA8); assay: Coupled enzymatic desuccinylation assay, Sirt5 with CPS1-succK537 peptide; type: biochemical; settings: for Effect on Sirt5 activity (in words): coupled assay, 10 and 100 μM compound
T3 sequence (Q9NXA8 34-302): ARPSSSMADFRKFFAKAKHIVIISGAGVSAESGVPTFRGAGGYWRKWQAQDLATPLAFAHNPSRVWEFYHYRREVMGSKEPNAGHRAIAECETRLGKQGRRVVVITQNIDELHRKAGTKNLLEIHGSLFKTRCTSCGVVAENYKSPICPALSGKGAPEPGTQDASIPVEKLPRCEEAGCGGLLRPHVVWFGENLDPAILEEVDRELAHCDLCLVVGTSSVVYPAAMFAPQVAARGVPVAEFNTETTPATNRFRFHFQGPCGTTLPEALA

Sirt6 = Sirt6 (Homo sapiens, UniProt Q8N6T7); assay: Sirt6 activity test; type: biochemical; settings: 100 μM compound
Sirt5 [4] = biological target: T3, Sirt5; assay: MS-based desuccinylation assay, Sirt5 with CPS1-succK537; type: biochemical; settings: 100 μM compound
Sirt1 = biological target: T4, Sirt1 (Homo sapiens, UniProt Q96EB6); assay: Coupled enzymatic deacetylation assay, Sirt1 with p53-acK381 peptide; type: biochemical; settings: 10 and 100 μM compound
T4 sequence (Q96EB6 1-747): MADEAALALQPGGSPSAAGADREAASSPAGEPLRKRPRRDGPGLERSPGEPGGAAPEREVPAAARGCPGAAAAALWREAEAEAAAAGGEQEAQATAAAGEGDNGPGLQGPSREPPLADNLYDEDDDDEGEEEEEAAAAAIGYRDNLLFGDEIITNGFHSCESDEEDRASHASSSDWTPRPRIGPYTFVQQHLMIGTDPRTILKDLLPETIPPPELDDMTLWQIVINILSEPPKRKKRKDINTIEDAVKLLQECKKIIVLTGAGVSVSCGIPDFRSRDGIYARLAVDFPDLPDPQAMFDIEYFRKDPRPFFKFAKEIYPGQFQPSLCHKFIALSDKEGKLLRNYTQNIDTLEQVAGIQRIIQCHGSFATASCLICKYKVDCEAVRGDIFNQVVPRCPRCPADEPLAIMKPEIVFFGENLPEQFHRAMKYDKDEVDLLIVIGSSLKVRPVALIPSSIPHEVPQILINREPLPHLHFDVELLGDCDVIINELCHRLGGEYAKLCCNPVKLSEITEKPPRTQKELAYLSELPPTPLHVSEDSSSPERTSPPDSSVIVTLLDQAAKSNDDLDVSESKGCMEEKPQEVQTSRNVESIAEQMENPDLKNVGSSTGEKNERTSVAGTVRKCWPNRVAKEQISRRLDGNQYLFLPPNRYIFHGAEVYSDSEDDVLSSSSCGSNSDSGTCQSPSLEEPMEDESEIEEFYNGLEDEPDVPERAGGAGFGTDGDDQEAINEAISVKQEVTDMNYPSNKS

Sirt3 [5] = biological target: T1, Sirt3; assay: Microscale thermophoresis binding to Sirt3
Sirt2 = biological target: T5, Sirt2 (Homo sapiens, UniProt Q8IXJ6); assay: Coupled enzymatic deacetylation assay, Sirt2 with α-tubulin-acK25 peptide; type: biochemical; settings: coupled assay, 10 and 100 μM compound
T5 sequence (Q8IXJ6 43-356): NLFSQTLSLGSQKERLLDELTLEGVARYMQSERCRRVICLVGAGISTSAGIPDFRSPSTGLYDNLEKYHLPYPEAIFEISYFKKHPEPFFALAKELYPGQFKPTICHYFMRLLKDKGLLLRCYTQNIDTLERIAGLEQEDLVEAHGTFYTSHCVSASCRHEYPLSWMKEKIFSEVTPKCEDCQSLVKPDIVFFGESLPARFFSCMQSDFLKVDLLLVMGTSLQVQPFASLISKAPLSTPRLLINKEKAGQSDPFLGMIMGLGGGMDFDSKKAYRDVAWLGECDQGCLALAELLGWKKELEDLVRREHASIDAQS

Sirt4 = biological target: T6, Sirt4 (Homo sapiens, UniProt Q9Y6E7); assay: Sirt4 activity test; type: biochemical; settings: 100 μM compound
T6 sequence (Q9Y6E7 29-314): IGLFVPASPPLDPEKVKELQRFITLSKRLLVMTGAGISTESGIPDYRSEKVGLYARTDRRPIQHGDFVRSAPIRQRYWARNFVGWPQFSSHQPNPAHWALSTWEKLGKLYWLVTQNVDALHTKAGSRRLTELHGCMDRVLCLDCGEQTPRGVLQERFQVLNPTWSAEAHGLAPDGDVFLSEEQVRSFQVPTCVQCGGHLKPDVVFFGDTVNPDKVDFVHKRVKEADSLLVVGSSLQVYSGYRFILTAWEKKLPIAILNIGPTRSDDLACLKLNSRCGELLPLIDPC

Sirt5 [6] = biological target: T3, Sirt5; assay: NAD+ titration kinetics of Sirt5; type: biochemical; settings: in presence of 200 μM compound (without compound 1.6 ± 0.1)
Sirt5 [7] = biological target: T2, Sirt5; assay: PDC deacylation assay: PDHA1 desuccinylation by recombinant Sirt5; type: biochemical; settings: 100 μM compound, PDHA1 from porcine heart tissue
Sirt5 [8] = biological target: T3, Sirt5; assay: Microscale thermophoresis binding to Sirt5
Sirt3 [9] = biological target: T1, Sirt3; assay: Sirt3-dependent deacetylation of a panel of eleven acetylated peptides; type: biochemical
GDH acetylation = assay: GDH immunoprecipitation and Lys acetylation Western blot, MDA-MB-231 cells; type: cell-based, human; settings: 50 μM
Sirt3 [10] = biological target: T1, Sirt3; assay: MS-based deacetylation assay, Sirt3 with ACS2 peptide; type: biochemical; settings: 100 μM compound
Sirt3 [11] = biological target: T7, Sirt3 (Homo sapiens, UniProt Q9NTG7); assay: Cellular SIRT3 deacetylase activity assay; type: cell-based; settings: MDA-MB-231 cells, 50 and 100 μM, 3 h
T7 sequence (Q9NTG7 1-399): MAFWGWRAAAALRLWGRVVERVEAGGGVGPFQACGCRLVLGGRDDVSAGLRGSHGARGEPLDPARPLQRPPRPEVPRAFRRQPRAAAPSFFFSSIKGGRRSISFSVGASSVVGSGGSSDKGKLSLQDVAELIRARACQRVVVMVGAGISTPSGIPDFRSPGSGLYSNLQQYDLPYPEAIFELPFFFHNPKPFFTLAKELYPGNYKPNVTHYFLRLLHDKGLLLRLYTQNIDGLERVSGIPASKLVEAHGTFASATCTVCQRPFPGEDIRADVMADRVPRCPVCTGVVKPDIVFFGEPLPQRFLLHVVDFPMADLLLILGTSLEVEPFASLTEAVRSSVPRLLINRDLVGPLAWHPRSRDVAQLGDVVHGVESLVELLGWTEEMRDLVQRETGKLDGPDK

Sirt3 [12] = settings: cited from earlier work

Sirt6, sequence (Q8N6T7 whole entry): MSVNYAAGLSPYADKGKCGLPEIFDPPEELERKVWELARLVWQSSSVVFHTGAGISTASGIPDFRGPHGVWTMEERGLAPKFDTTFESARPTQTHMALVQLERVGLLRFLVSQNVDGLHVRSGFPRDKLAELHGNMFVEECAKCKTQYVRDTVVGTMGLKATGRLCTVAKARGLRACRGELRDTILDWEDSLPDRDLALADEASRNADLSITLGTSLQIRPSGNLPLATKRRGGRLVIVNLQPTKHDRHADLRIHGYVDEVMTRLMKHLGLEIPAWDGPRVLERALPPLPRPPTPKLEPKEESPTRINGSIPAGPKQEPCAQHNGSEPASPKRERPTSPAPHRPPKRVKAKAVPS

CCOC(=O)C1=CN(Cc2ccccc2)C=C(C(=O)OCC)C1c1ccccc1 [Compound 1]
Effect on Sirt3 activity (in words) (Sirt3 [1]): Sirt3 activation
Sirt1-3 activation in the FdL assay (Sirt1-3): Sirt1-3 activating properties

CCOC(=O)C1=CN(C(=O)c2ccccc2)C=C(C(=O)OCC)C1c1cccc(OC)c1 [Compound 19]
Ammonia accumulation (MDA-MB-231 cells): blocked ammonia accumulation
GLS activity in cell lysates (glutaminase (GLS)): decreased GLS activity
In vitro Sirt5 deacetylase activity (Sirt5 [2]): increase in vitro Sirt5 deacetylase activity
GOT1 acetylation (GOT1 acetylation): decrease GOT1 acetylation
Effect on GOT1 acetylation (GOT1 acetylation): negligible
GDH activity in cell lysates (GDH): decreased GDH activity
Sirt5 activation (CPS1-succK537 desuccinylation) (Sirt5 [3]; 10 μM compound): 1.2- to 1.5 fold
Effect on Sirt5 activity (in words) (Sirt5 [3]): specific Sirt5 activation

CCOC(=O)C1=CN(C(=O)c2ccccc2)C=C(C(=O)OCC)C1c1ccsc1 [Compound 30, Diethyl 1-Benzoyl-4-(thiophen-3-yl)-1,4-dihydropyridine-3,5-dicarboxylate]
Ammonia accumulation (MDA-MB-231 cells): blocked ammonia accumulation
Effect on Sirt6 (Sirt6): weak, partial inhibition
GLS activity in cell lysates (glutaminase (GLS)): decreased GLS activity
Sirt5 activation in MS-based assay (Sirt5 [4]): confirmed the activation of Sirt5-dependent desuccinylation
GOT1 acetylation (GOT1 acetylation): decrease GOT1 acetylation
Effect on GOT1 acetylation (GOT1 acetylation): negligible
GDH activity in cell lysates (GDH): decreased GDH activity
Effect on Sirt1 activity (in words) (Sirt1): no significant effects
Kd (Sirt3 [5]): 138 ± 37 µM
Effect on Sirt2 activity (in words) (Sirt2): no significant effects
Effect on Sirt4 (Sirt4): weak, partial inhibition
EC50 (Sirt5 [3]): ~40 µM
Sirt5 activation (CPS1-succK537 desuccinylation) (Sirt5 [3]; 100 μM compound): 3- to 3.5 fold
Maximum activation of Sirt5 (Sirt5 [3]; titration, beyond 200 μM compound concentration): 5 fold
NAD+ kinetics vmax of Sirt5 (Sirt5 [6]): 2.3 ± 0.1 nmol/mg/min
Effect on Sirt3 activity (in words) (Sirt3 [1]): no significant effects
Sirt5-dependent desuccinylation of PDHA1 (Sirt5 [7]): clearly enhanced

CCOC(=O)C1=CN(C(=O)c2cc(OC)c(OC)c(OC)c2)C=C(C(=O)OCC)C1c1ccccc1 [Compound 31, Diethyl 4-Phenyl-1-(3,4,5-trimethoxybenzoyl)-1,4-dihydropyridine-3,5-dicarboxylate]
Effect on Sirt6 (Sirt6): no significant effects
Kd (Sirt5 [8]): 83 ± 19 µM
Stimulation of Sirt3-dependent deacetylation of all panel substrates (Sirt3 [9]; 10 μM compound): weakly
Stimulation of Sirt3-dependent deacetylation of all panel substrates (Sirt3 [9]; 100 μM compound): significantly
GDH overall Lys acetylation (GDH acetylation): decreased acetylation levels
Sirt3 activation in MS-based assay (Sirt3 [10]): activated Sirt3-dependent deacetylation of the ACS2 peptide
Effect on Sirt1 activity (in words) (Sirt1): no significant effects
Kd (Sirt3 [5]): 32 ± 7 µM
Effect on Sirt2 activity (in words) (Sirt2): no significant effects
Effect on Sirt4 (Sirt4): partial Sirt4 inhibition
Effect on Sirt5 activity (in words) (Sirt5 [3]): no significant effects
Sirt3 activity (Sirt3 [1]; 100 μM compound): more than 400%
FdL deacetylation (Sirt3) activity in cell lysates (Sirt3 [11]): significant increase in FdL deacetylation activity

C=CCc1ccc(O)c(-c2ccc(O)c(CC=C)c2)c1 [honokiol]
Sirt3 activation (Sirt3 [12]): weakly activate Sirt3
